Activity calls are given as the source filed them. The rule behind the calls is not given here.
test system: not listed separately; assay: Antiproliferative activity against human SKHep cells incubated for 72 hrs by MTT assay; assay type: functional, cell-based; conditions: not given

| SMILES | IC50 |
| --- | --- |
| COc1ccc2c(c1)/C(=N\OCC1CO1)c1c-2c(N2CCN(CC3CO3)CC2)nc2ccccc12 (configuration not stated) | 0.99 µM |
| COc1ccc2c(c1)C(=O)c1c-2c(N2CCN(C(=O)CNCCCN(C)C)CC2)nc2ccccc12 | 13.1 µM |
| COc1ccc2c(c1)C(=O)c1c-2c(N2CCN(C(=O)CCN3CCNCC3)CC2)nc2ccccc12 | 4.93 µM |

test system: NCI-H1299; assay: Induction of apoptosis in human H1299 cells assessed as early apoptotic cells level at 10 uM annexin V and propidium iodide double staining based flow cytometry (reference value: 0.74 +/- 0.31%); assay type: functional; conditions: not given

| SMILES | Activity |
| --- | --- |
| COc1ccc2c(c1)/C(=N\OCC1CO1)c1c-2c(N2CCN(CC3CO3)CC2)nc2ccccc12 (configuration not stated) | 1.6% |

test system: NCI-H1299; assay: Induction of apoptosis in human H1299 cells assessed as late apoptotic cells level at 5 uM annexin V and propidium iodide double staining based flow cytometry (reference value: 2.62 +/- 0.75%); assay type: functional; conditions: not given

| SMILES | Activity |
| --- | --- |
| COc1ccc2c(c1)/C(=N\OCC1CO1)c1c-2c(N2CCN(CC3CO3)CC2)nc2ccccc12 (configuration not stated) | 8.25% |

test system: NCI-H1299; assay: Induction of apoptosis in human H1299 cells assessed as early apoptotic cells level at 1 uM annexin V and propidium iodide double staining based flow cytometry (reference value: 0.74 +/- 0.31%); assay type: functional; conditions: not given

| SMILES | Activity |
| --- | --- |
| COc1ccc2c(c1)/C(=N\OCC1CO1)c1c-2c(N2CCN(CC3CO3)CC2)nc2ccccc12 (configuration not stated) | 1.38% |

test system: not listed separately; assay: Reduction in p-Akt protein expression in human H1299 cells at 1 to 10 uM incubated for 24 hrs by Western blotting method; assay type: functional, cell-based; conditions: NCI-H1299

| SMILES | Activity |
| --- | --- |
| COc1ccc2c(c1)/C(=N\OCC1CO1)c1c-2c(N2CCN(CC3CO3)CC2)nc2ccccc12 (configuration not stated) | Active |

test system: NCI-H1299; assay: Induction of apoptosis in human H1299 cells assessed as late apoptotic cells level at 10 uM annexin V and propidium iodide double staining based flow cytometry (reference value: 2.62 +/- 0.75%); assay type: functional; conditions: not given

| SMILES | Activity |
| --- | --- |
| COc1ccc2c(c1)/C(=N\OCC1CO1)c1c-2c(N2CCN(CC3CO3)CC2)nc2ccccc12 (configuration not stated) | 17.9% |

test system: Nucleic Acid; assay: Induction of DNA intercalation of negative supercoiled Escherichia coli pBR322 DNA at 10 uM incubated for 12 hrs by ethidium bromide staining based DNA mobility assay; assay type: nucleic-acid assay; conditions: not given

| Activity | SMILES |
| --- | --- |
| Active | COc1ccc2c(c1)/C(=N\OCC1CO1)c1c-2c(N2CCN(CC3CO3)CC2)nc2ccccc12 (configuration not stated) |

test system: NCI-H1299; assay: Antiproliferative activity against human H1299 cells incubated for 72 hrs by MTT assay; assay type: functional, cell-based; conditions: NCI-H1299, 72 h

| IC50 | SMILES |
| --- | --- |
| 1.18 µM | COc1ccc2c(c1)/C(=N\OCC1CO1)c1c-2c(N2CCN(CC3CO3)CC2)nc2ccccc12 (configuration not stated) |
| 5.99 µM | COc1ccc2c(c1)C(=O)c1c-2c(N2CCN(C(=O)CNCCCN(C)C)CC2)nc2ccccc12 |
| 5.87 µM | COc1ccc2c(c1)C(=O)c1c-2c(N2CCN(C(=O)CCN3CCNCC3)CC2)nc2ccccc12 |

test system: NCI-H1299; assay: Induction of apoptosis in human H1299 cells assessed as increase in BAX cleavage at 1 to 10 uM incubated for 24 hrs by Western blotting method; assay type: functional, cell-based; conditions: not given

| SMILES | Activity |
| --- | --- |
| COc1ccc2c(c1)/C(=N\OCC1CO1)c1c-2c(N2CCN(CC3CO3)CC2)nc2ccccc12 (configuration not stated) | Active |

test system: Detroit 551; assay: Antiproliferative activity against human Detroit 551 cells incubated for 72 hrs by MTT assay; assay type: functional, cell-based; conditions: Detroit 551, 72 h

| SMILES | IC50 |
| --- | --- |
| COc1ccc2c(c1)/C(=N\OCC1CO1)c1c-2c(N2CCN(CC3CO3)CC2)nc2ccccc12 (configuration not stated) | 7.95 µM |
| COc1ccc2c(c1)C(=O)c1c-2c(N2CCN(C(=O)CNCCCN(C)C)CC2)nc2ccccc12 | 8.89 µM |
| COc1ccc2c(c1)C(=O)c1c-2c(N2CCN(C(=O)CCN3CCNCC3)CC2)nc2ccccc12 | 3.35 µM |

test system: NCI-H1299; assay: Induction of apoptosis in human H1299 cells assessed as increase in PARP cleavage at 1 to 10 uM incubated for 24 hrs by Western blotting method; assay type: functional, cell-based; conditions: not given

| SMILES | Activity |
| --- | --- |
| COc1ccc2c(c1)/C(=N\OCC1CO1)c1c-2c(N2CCN(CC3CO3)CC2)nc2ccccc12 (configuration not stated) | Active |

test system: not listed separately; assay: Reduction in SIRT1 protein expression in human H1299 cells at 1 to 10 uM incubated for 24 hrs by Western blotting method; assay type: functional, cell-based; conditions: NCI-H1299

| SMILES | Activity |
| --- | --- |
| COc1ccc2c(c1)/C(=N\OCC1CO1)c1c-2c(N2CCN(CC3CO3)CC2)nc2ccccc12 (configuration not stated) | Active |

test system: not listed separately; assay: Reduction in FOXO3a protein expression in human H1299 cells at 1 to 10 uM incubated for 24 hrs by Western blotting method; assay type: functional, cell-based; conditions: NCI-H1299

| SMILES | Activity |
| --- | --- |
| COc1ccc2c(c1)/C(=N\OCC1CO1)c1c-2c(N2CCN(CC3CO3)CC2)nc2ccccc12 (configuration not stated) | Active |

test system: NCI-H1299; assay: Induction of apoptosis in human H1299 cells assessed as increase in caspase-3 activation at 1 to 10 uM incubated for 24 hrs by Western blotting method; assay type: functional, cell-based; conditions: not given

| SMILES | Activity |
| --- | --- |
| COc1ccc2c(c1)/C(=N\OCC1CO1)c1c-2c(N2CCN(CC3CO3)CC2)nc2ccccc12 (configuration not stated) | Active |

test system: NCI-H1299; assay: Induction of DNA damage in human H1299 cells at 5 uM incubated for 24 hrs by single cell electrophoresis-based alkaline comet assay; assay type: functional; conditions: not given

| SMILES | Activity |
| --- | --- |
| COc1ccc2c(c1)/C(=N\OCC1CO1)c1c-2c(N2CCN(CC3CO3)CC2)nc2ccccc12 (configuration not stated) | Active |

test system: MDA-MB-231; assay: Antiproliferative activity against human MDA-MB-231 cells incubated for 72 hrs by MTT assay; assay type: functional, cell-based; conditions: MDA-MB-231, 72 h

| IC50 | SMILES |
| --- | --- |
| 0.79 µM | COc1ccc2c(c1)/C(=N\OCC1CO1)c1c-2c(N2CCN(CC3CO3)CC2)nc2ccccc12 (configuration not stated) |
| 6 µM | COc1ccc2c(c1)C(=O)c1c-2c(N2CCN(C(=O)CNCCCN(C)C)CC2)nc2ccccc12 |
| 6.26 µM | COc1ccc2c(c1)C(=O)c1c-2c(N2CCN(C(=O)CCN3CCNCC3)CC2)nc2ccccc12 |

test system: not listed separately; assay: Reduction in HDAC6 protein expression in human H1299 cells at 1 to 10 uM incubated for 24 hrs by Western blotting method; assay type: functional, cell-based; conditions: NCI-H1299

| SMILES | Activity |
| --- | --- |
| COc1ccc2c(c1)/C(=N\OCC1CO1)c1c-2c(N2CCN(CC3CO3)CC2)nc2ccccc12 (configuration not stated) | Active |

test system: NCI-H1299; assay: Induction of apoptosis in human H1299 cells assessed as increase in caspase-7 activation at 1 to 10 uM incubated for 24 hrs by Western blotting method; assay type: functional, cell-based; conditions: not given

| SMILES | Activity |
| --- | --- |
| COc1ccc2c(c1)/C(=N\OCC1CO1)c1c-2c(N2CCN(CC3CO3)CC2)nc2ccccc12 (configuration not stated) | Active |

test system: not listed separately; assay: Reduction in PTEN protein expression in human H1299 cells at 1 to 10 uM incubated for 24 hrs by Western blotting method; assay type: functional, cell-based; conditions: NCI-H1299

| SMILES | Activity |
| --- | --- |
| COc1ccc2c(c1)/C(=N\OCC1CO1)c1c-2c(N2CCN(CC3CO3)CC2)nc2ccccc12 (configuration not stated) | Active |

test system: not listed separately; assay: Antiproliferative activity against human 786-O cells incubated for 72 hrs by MTT assay; assay type: functional, cell-based; conditions: 786-0, 72 h

| SMILES | IC50 |
| --- | --- |
| COc1ccc2c(c1)/C(=N\OCC1CO1)c1c-2c(N2CCN(CC3CO3)CC2)nc2ccccc12 (configuration not stated) | 8.8 µM |
| COc1ccc2c(c1)C(=O)c1c-2c(N2CCN(C(=O)CNCCCN(C)C)CC2)nc2ccccc12 | 9.97 µM |
| COc1ccc2c(c1)C(=O)c1c-2c(N2CCN(C(=O)CCN3CCNCC3)CC2)nc2ccccc12 | 1.5 µM |

test system: AGS; assay: Antiproliferative activity against human AGS cells incubated for 72 hrs by MTT assay; assay type: functional, cell-based; conditions: not given

| IC50 | SMILES |
| --- | --- |
| 8.76 µM | COc1ccc2c(c1)/C(=N\OCC1CO1)c1c-2c(N2CCN(CC3CO3)CC2)nc2ccccc12 (configuration not stated) |
| 5.62 µM | COc1ccc2c(c1)C(=O)c1c-2c(N2CCN(C(=O)CNCCCN(C)C)CC2)nc2ccccc12 |
| 5.46 µM | COc1ccc2c(c1)C(=O)c1c-2c(N2CCN(C(=O)CCN3CCNCC3)CC2)nc2ccccc12 |

test system: HeLa; assay: Antiproliferative activity against human HeLa cells incubated for 72 hrs by MTT assay; assay type: functional, cell-based; conditions: not given

| IC50 | SMILES |
| --- | --- |
| 0.54 µM | COc1ccc2c(c1)/C(=N\OCC1CO1)c1c-2c(N2CCN(CC3CO3)CC2)nc2ccccc12 (configuration not stated) |
| 10.8 µM | COc1ccc2c(c1)C(=O)c1c-2c(N2CCN(C(=O)CNCCCN(C)C)CC2)nc2ccccc12 |
| 4.71 µM | COc1ccc2c(c1)C(=O)c1c-2c(N2CCN(C(=O)CCN3CCNCC3)CC2)nc2ccccc12 |

test system: NCI-H1299; assay: Induction of apoptosis in human H1299 cells assessed as decrease in Bcl2 expression at 1 to 10 uM incubated for 24 hrs by Western blotting method; assay type: functional, cell-based; conditions: not given

| SMILES | Activity |
| --- | --- |
| COc1ccc2c(c1)/C(=N\OCC1CO1)c1c-2c(N2CCN(CC3CO3)CC2)nc2ccccc12 (configuration not stated) | Active |

test system: NCI-H1299; assay: Induction of apoptosis in human H1299 cells assessed as early apoptotic cells level at 5 uM annexin V and propidium iodide double staining based flow cytometry (reference value: 0.74 +/- 0.31%); assay type: functional; conditions: not given

| SMILES | Activity |
| --- | --- |
| COc1ccc2c(c1)/C(=N\OCC1CO1)c1c-2c(N2CCN(CC3CO3)CC2)nc2ccccc12 (configuration not stated) | 2.45% |

test system: SAS; assay: Antiproliferative activity against human SAS cells incubated for 72 hrs by MTT assay; assay type: functional, cell-based; conditions: not given

| SMILES | IC50 |
| --- | --- |
| COc1ccc2c(c1)/C(=N\OCC1CO1)c1c-2c(N2CCN(CC3CO3)CC2)nc2ccccc12 (configuration not stated) | 6.2 µM |
| COc1ccc2c(c1)C(=O)c1c-2c(N2CCN(C(=O)CNCCCN(C)C)CC2)nc2ccccc12 | > 30 µM |
| COc1ccc2c(c1)C(=O)c1c-2c(N2CCN(C(=O)CCN3CCNCC3)CC2)nc2ccccc12 | 7.7 µM |

test system: NCI-H1299; assay: Induction of apoptosis in human H1299 cells assessed as late apoptotic cells level at 1 uM annexin V and propidium iodide double staining based flow cytometry (reference value: 2.62 +/- 0.75%); assay type: functional; conditions: not given

| SMILES | Activity |
| --- | --- |
| COc1ccc2c(c1)/C(=N\OCC1CO1)c1c-2c(N2CCN(CC3CO3)CC2)nc2ccccc12 (configuration not stated) | 4.5% |

Source: ChEMBL document CHEMBL3585245, “Synthesis and antiproliferative evaluation of 9-methoxy-6-(piperazin-1-yl)-11H-indeno[1,2-c]quinoline-11-one derivatives. Part 4” (Medchemcomm, 2014)
